Among the test systems are NCI-H23; KM12; UACC-257; A498; T47D; HCT-15; RPMI-8226; DU-145; IGROV-1; OVCAR-5; NCI-H226; 786-0; OVCAR-4; PC-3; Malme-3M; HCT-116; SNB-19; SK-MEL-5; M14; NCI-H522.
Assay in all cases: inhibition of tumour cell growth, NCI panel, 48 h

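Protocol summary: plate cells (96-well), add compound at 5 concentrations, incubate 48 h, interpolate endpoints linearly. GI50 = concentration required for 50% inhibition of growth.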 The source made the active and inactive calls. No stated cut-off is given here; in the data, active = GI50 up to about 1.1 µM and inactive = higher.

On to `CC1(C)C[C@H]2[C@H](O)C(CO)=C3C(=O)[C@@H](O)[C@]3(C)[C@H]2C1`, for which the GI50 in the test on NCI-H23 is 63.7 µM (inactive); in the test with KM12, > 100 µM (inactive); in the test with UACC-257, > 100 µM (inactive); in the test on A498, > 100 µM (inactive); with T47D it was 74.6 µM (inactive); with HCT-15 it was 52.5 µM. For the same compound, the GI50 with RPMI-8226 is 38.4 µM (inactive); with DU-145, > 100 µM (inactive); with IGROV-1, > 100 µM (inactive); with OVCAR-5 it was > 100 µM (inactive); in the test with NCI-H226 it was > 100 µM (inactive); in the test with 786-0, > 100 µM (inactive). The GI50 with OVCAR-4 is > 100 µM (inactive); in the test on PC-3, > 100 µM (inactive); in the test on Malme-3M it was > 100 µM (inactive); in the test on HCT-116, 75.9 µM (inactive); in the test on SNB-19, > 100 µM (inactive); in the test on SK-MEL-5 it was > 100 µM (inactive). Moreover, the results for the GI50 in the test with M14 and in the test with NCI-H522 were > 100 µM (inactive) and 64.6 µM (inactive), respectively.
On to `CCOC(=O)[C@H]1O[C@@H]1C(=O)NC(CC(C)C)C(=O)NCCC(C)C` (stereo not given in full), for which the GI50 is > 100 µM (inactive) in the test on NCI-H23; > 100 µM (inactive) in the test on KM12; > 100 µM (inactive) with UACC-257; > 100 µM (inactive) in the test with A498; > 100 µM (inactive) in the test on T47D; above 100 µM in the test on HCT-15. The GI50 with RPMI-8226, in the test with DU-145, in the test with IGROV-1, in the test on OVCAR-5, with NCI-H226 and in the test with 786-0 was > 100 µM (inactive) throughout. In addition, the GI50 in the test on OVCAR-4, with PC-3, with Malme-3M, in the test with HCT-116, with SNB-19 and in the test on SK-MEL-5 was > 100 µM (inactive) each time. Moreover, the GI50 with M14 and with NCI-H522 was > 100 µM (inactive) in each case.
For the compound `CCCCSC1=N/C(=C\c2ccco2)C(Cl)=N1`, the GI50 in the test with NCI-H23 is > 100 µM (inactive); with KM12, > 100 µM (inactive); in the test on UACC-257 it was > 100 µM (inactive); with A498, > 100 µM (inactive); in the test on T47D, > 100 µM (inactive); with HCT-15, above 100 µM. Also, the GI50 in the test with RPMI-8226, in the test with DU-145, in the test on IGROV-1, in the test on OVCAR-5, in the test with NCI-H226 and in the test on 786-0 was > 100 µM (inactive) throughout. Also, the GI50 in the test on OVCAR-4, with PC-3, in the test with Malme-3M, with HCT-116, in the test with SNB-19 and in the test on SK-MEL-5 was > 100 µM (inactive) throughout. Further, the GI50 with M14 and in the test on NCI-H522 was > 100 µM (inactive) in each case.
With `COc1ccc(/C=C/C(=O)c2cc(OC)cc(OC)c2)cc1`, the GI50 in the test with NCI-H23 is 2.58 µM (inactive); in the test on KM12, 0.265 µM (active); with UACC-257, 13.6 µM (inactive); in the test on A498, 3.67 µM (inactive); in the test with T47D, 3.11 µM (inactive); with HCT-15, 0.543 µM. The GI50 was 0.646 µM (active) in the test with RPMI-8226; 3.24 µM (inactive) with DU-145; 4.57 µM (inactive) in the test with IGROV-1; 5.6 µM (inactive) with OVCAR-5; 10.2 µM (inactive) in the test with NCI-H226; 1.16 µM (inactive) in the test on 786-0. Also, the GI50 with OVCAR-4 was 3.45 µM (inactive); in the test on PC-3 it was 6.12 µM (inactive); in the test with Malme-3M, 13.6 µM (inactive); in the test with HCT-116 it was 1.22 µM (inactive); with SNB-19, 1.69 µM (inactive); with SK-MEL-5, 10.3 µM (inactive). In addition, the GI50 in the test with M14 is 2.45 µM (inactive); in the test on NCI-H522 it was 2.22 µM (inactive).
Regarding `O=C1/C(=C\c2ccc(-c3ccc(Cl)cc3Cl)o2)SC2NC(COc3ccc(Cl)cc3)=NN12` (stereo not given), the GI50 in the test on NCI-H23 was 53.2 µM (inactive); in the test on KM12, 55.5 µM (inactive); in the test with UACC-257, 21.1 µM (inactive); with A498, 2.19 µM (inactive); in the test with T47D, 27.2 µM (inactive); with HCT-15, 34.9 µM. Further, the GI50 was 38.4 µM (inactive) with RPMI-8226; 65.6 µM (inactive) with DU-145; 29.9 µM (inactive) in the test with IGROV-1; > 100 µM (inactive) with OVCAR-5; 20.2 µM (inactive) in the test on NCI-H226; 51.2 µM (inactive) in the test on 786-0. The GI50 in the test with OVCAR-4 is 45.3 µM (inactive); in the test with PC-3 it was 64.7 µM (inactive); with Malme-3M, 42.2 µM (inactive); in the test on HCT-116 it was 48.4 µM (inactive); in the test on SNB-19 it was 53.7 µM (inactive); in the test on SK-MEL-5, 36.7 µM (inactive). For the same compound, the GI50 was > 100 µM (inactive) in the test on M14 and 55 µM (inactive) in the test on NCI-H522.
On to `CO/N=[N+](\[O-])NC(C)C`, for which the GI50 with NCI-H23 was > 100 µM (inactive); in the test on KM12 it was > 100 µM (inactive); in the test with UACC-257 it was > 100 µM (inactive); in the test with A498, > 100 µM (inactive); in the test with T47D it was > 100 µM (inactive); with HCT-15, above 100 µM. In addition, the GI50 in the test on RPMI-8226, with DU-145, in the test with IGROV-1, in the test with OVCAR-5, in the test on NCI-H226 and in the test with 786-0 was > 100 µM (inactive) throughout. The GI50 in the test with OVCAR-4, with PC-3, in the test on Malme-3M, in the test with HCT-116, in the test on SNB-19 and in the test on SK-MEL-5 was > 100 µM (inactive) throughout. Also, the GI50 with M14 and in the test on NCI-H522 was > 100 µM (inactive) throughout.
On to `O=C(O)CCC(NC(=O)c1ccc(Oc2nc3ccccc3nc2C(=O)O)cc1)C(=O)O` (stereo not given), for which the GI50 is > 100 µM (inactive) in the test on NCI-H23; > 100 µM (inactive) with KM12; > 100 µM (inactive) with UACC-257; > 100 µM (inactive) in the test on A498; > 100 µM (inactive) with T47D; above 100 µM in the test with HCT-15. Further, the GI50 in the test with RPMI-8226, in the test with DU-145, in the test on IGROV-1, in the test with OVCAR-5, in the test with NCI-H226 and in the test with 786-0 was > 100 µM (inactive) throughout. The GI50 with OVCAR-4, with PC-3, with Malme-3M, in the test on HCT-116, with SNB-19 and in the test with SK-MEL-5 was > 100 µM (inactive) in each case. The GI50 in the test with M14 and in the test on NCI-H522 was > 100 µM (inactive) in each case.
Take `COc1c(C)c(OC)c2c(c1O)[C@@H]1[C@@H]3Cc4c(OC)c(C)c(OC)c(O)c4[C@H](CNC(=O)c4cnc5ccccc5n4)N3[C@@H](C#N)[C@H](C2)N1C`: the GI50 in the test with NCI-H23 is 0.00277 µM (active); with KM12, 0.00149 µM (active); in the test on UACC-257 it was 0.00296 µM (active); in the test with A498, 0.00232 µM (active); in the test on T47D, 0.000522 µM (active); in the test with HCT-15, 0.00826 µM. Also, the GI50 is 0.000634 µM (active) in the test on RPMI-8226; 0.0026 µM (active) in the test with DU-145; 0.0014 µM (active) in the test with IGROV-1; 0.00337 µM (active) in the test on OVCAR-5; 0.00246 µM (active) in the test on NCI-H226; 0.00412 µM (active) with 786-0. Moreover, the GI50 in the test on OVCAR-4 was 0.002 µM (active); with PC-3, 0.00433 µM (active); in the test with Malme-3M, 0.0013 µM (active); with HCT-116, 0.00222 µM (active); in the test on SNB-19, 0.00385 µM (active); in the test on SK-MEL-5, 0.00254 µM (active). Besides, the results for the GI50 with M14 and with NCI-H522 were 0.00221 µM (active) and 0.000399 µM (active), respectively.
On to `O=C(O)C1C2C=CC(O2)C1C(=O)NCc1cccnc1` (stereo not given), for which the GI50 with NCI-H23 was > 100 µM (inactive); with KM12 it was > 100 µM (inactive); with UACC-257, 72.6 µM (inactive); in the test with A498, > 100 µM (inactive); in the test with T47D it was > 100 µM (inactive); with HCT-15, above 100 µM. In addition, the GI50 in the test on RPMI-8226, with DU-145, with IGROV-1, in the test with OVCAR-5, in the test with NCI-H226 and in the test on 786-0 was > 100 µM (inactive) in each case. Also, the GI50 with OVCAR-4, in the test with PC-3, in the test on Malme-3M, with HCT-116, with SNB-19 and in the test with SK-MEL-5 was > 100 µM (inactive) throughout. In addition, the GI50 in the test on M14 and in the test with NCI-H522 was > 100 µM (inactive) throughout.
For `CN(C)CCn1c(=O)c2ccc(NCCN3CCNCC3)c3c(=O)c4ccccc4n(c1=O)c23`, the GI50 was 2.3 µM (inactive) in the test on NCI-H23; 1.63 µM (inactive) in the test on KM12; 4.07 µM (inactive) in the test with UACC-257; 4.15 µM (inactive) in the test on A498; 9.68 µM (inactive) in the test with T47D; 1.53 µM in the test with HCT-15. Moreover, the GI50 in the test with RPMI-8226 was 0.251 µM (active); in the test with DU-145, 3.39 µM (inactive); in the test with IGROV-1 it was 0.345 µM (active); with OVCAR-5 it was 8.47 µM (inactive); in the test with NCI-H226, 2.38 µM (inactive); in the test with 786-0, 0.358 µM (active). In addition, the GI50 was 5.69 µM (inactive) in the test on OVCAR-4; 1.79 µM (inactive) in the test on PC-3; 4.12 µM (inactive) in the test with Malme-3M; 0.692 µM (active) in the test with HCT-116; 2.94 µM (inactive) with SNB-19; 3.47 µM (inactive) in the test on SK-MEL-5. Moreover, the GI50 is 4.84 µM (inactive) in the test on M14 and 1.07 µM (active) in the test on NCI-H522.

The values are drawn from ChEMBL document CHEMBL1201862, “PubChem BioAssay data set” (2004).
